The values below come from patent US12492193B2, “Pyrazole derivatives for the treatment of cystic fibrosis” (Fondazione Istituto Italiano Di Tecnologia, priority 2017, dated 2025).

pEC50: −log10 of the molar value.

This assay concerns the target T1, mutant CFTR (Homo sapiens, UniProt P13569, DEL508-508).
T1 construct: expressed in transfected cells
Put plainly: Fluorescence (HS-YFP) assay for CFTR activity, corrector assay. The format is cell-based. The settings on record: CFBE41o- and FRT cells with stable expression of mutant CFTR, 24 h compound treatment. The gist of the method: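 CFBE41o- or FRT cells stably expressing mutant CFTR and HS-YFP were exposed to compounds for 24 h (corrector mode), then stimulated 30 min at 37° C with forskolin (20 μM) plus genistein (50 μM). YFP quenching after 100 mM iodide injection; initial slope from exponential fit of final 10 s; EC50 reported.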

T1 sequence (P13569 with tags, fused parts or gaps DEL508-508): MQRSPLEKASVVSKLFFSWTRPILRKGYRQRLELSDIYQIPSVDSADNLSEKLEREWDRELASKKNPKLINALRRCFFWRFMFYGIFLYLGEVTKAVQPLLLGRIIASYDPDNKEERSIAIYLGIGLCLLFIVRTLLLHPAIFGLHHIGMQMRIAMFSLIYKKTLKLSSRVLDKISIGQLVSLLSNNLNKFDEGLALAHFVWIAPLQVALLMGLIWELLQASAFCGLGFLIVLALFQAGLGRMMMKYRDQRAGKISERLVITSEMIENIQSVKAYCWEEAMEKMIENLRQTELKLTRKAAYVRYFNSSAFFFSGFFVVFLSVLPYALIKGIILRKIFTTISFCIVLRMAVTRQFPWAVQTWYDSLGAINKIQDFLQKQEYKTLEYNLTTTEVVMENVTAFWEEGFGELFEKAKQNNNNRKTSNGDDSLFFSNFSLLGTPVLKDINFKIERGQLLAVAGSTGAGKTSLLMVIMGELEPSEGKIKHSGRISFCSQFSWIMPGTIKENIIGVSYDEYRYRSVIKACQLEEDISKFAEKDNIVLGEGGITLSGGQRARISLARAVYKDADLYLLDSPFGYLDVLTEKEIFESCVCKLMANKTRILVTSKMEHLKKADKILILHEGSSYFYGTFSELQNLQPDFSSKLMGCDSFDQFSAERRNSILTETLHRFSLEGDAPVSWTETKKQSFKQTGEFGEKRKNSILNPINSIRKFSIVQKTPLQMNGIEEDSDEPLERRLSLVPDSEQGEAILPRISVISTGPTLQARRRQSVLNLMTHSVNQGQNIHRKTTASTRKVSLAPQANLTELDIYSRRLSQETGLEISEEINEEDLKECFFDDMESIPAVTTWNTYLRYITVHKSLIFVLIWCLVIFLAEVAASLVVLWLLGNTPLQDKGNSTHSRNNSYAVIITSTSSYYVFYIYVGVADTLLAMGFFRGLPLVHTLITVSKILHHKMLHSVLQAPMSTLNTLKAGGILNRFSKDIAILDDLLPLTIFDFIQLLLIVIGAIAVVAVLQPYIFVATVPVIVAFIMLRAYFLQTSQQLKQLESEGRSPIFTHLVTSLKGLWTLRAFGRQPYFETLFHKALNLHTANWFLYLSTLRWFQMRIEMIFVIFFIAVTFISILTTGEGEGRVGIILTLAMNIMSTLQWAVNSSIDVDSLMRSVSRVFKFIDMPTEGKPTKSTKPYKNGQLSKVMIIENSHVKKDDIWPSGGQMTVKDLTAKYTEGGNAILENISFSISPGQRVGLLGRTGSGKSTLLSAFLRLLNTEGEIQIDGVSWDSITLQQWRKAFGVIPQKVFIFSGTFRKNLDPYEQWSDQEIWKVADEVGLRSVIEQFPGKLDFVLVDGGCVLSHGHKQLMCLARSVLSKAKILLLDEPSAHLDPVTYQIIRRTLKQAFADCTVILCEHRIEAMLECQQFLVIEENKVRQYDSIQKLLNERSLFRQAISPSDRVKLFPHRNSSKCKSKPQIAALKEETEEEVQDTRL

In general, pEC50 refers to −log10 of the EC50, conventionally taken in molar units. Regarding `Cc1c(Cl)c(C(F)(F)F)nn1-c1cccc(C(=O)Nc2ccc3c(c2C(=O)O)OCO3)c1` [compound 205, 5-[[3-[4-chloro-5-methyl-3-(trifluoromethyl)pyrazol-1-yl]benzoyl]amino]-1,3-benzodioxole-4-carboxylic acid], the pEC50 is less than 5.70. In the case of `Cc1c(Cl)c(C(F)(F)F)nn1-c1cccc(C(=O)Nc2ccc3c(c2CO)OCO3)c1` [compound 206, 3-[4-chloro-5-methyl-3-(trifluoromethyl)pyrazol-1-yl]-N-[4-(hydroxymethyl)-1,3-benzodioxol-5-yl]benzamide] it was less than 5.70; in that of `Cc1c(Cl)c(C(F)(F)F)nn1-c1cccc(C(=O)N(C)c2ccc3c(c2C=O)OCO3)c1` [compound 207, 3-[4-chloro-5-methyl-3-(trifluoromethyl)pyrazol-1-yl]-N-(4-formyl-1,3-benzodioxol-5-yl)-N-methyl-benzamide], less than 5.70; in that of `Cc1c(Cl)c(C(F)(F)F)nn1-c1cccc(C(=O)N(C)c2ccc3c(c2C(=O)O)OCO3)c1` [compound 208, 5-[[3-[4-chloro-5-methyl-3-(trifluoromethyl)pyrazol-1-yl]benzoyl]-methyl-amino]-1,3-benzodioxole-4-carboxylic acid], less than 5.70. The same measure for `Cc1c(Cl)c(C(F)(F)F)nn1-c1cccc(C(=O)N(C)c2ccc3c(c2CO)OCO3)c1` [compound 209, 3-[4-chloro-5-methyl-3-(trifluoromethyl)pyrazol-1-yl]-N-[4-(hydroxymethyl)-1,3-benzodioxol-5-yl]-N-methyl-benzamide]: less than 5.70.

For the compound `CN(C(=O)c1cccc(-n2nc(C(F)(F)F)c(C#N)c2Oc2ccc(C(=O)O)cc2)c1)c1ccc2c(c1)OCO2` [compound 210, 4-[2-[3-[1,3-Benzodioxol-5-yl(methyl)carbamoyl]phenyl]-4-cyano-5-(trifluoromethyl)pyrazol-3-yl]oxybenzoic acid], the pEC50 was less than 5.70. The same measure for `CN(C(=O)c1cccc(-n2nc(C(F)(F)F)c(Cl)c2OCc2ccc(C(=O)O)cc2)c1)c1ccc2c(c1)OC(F)(F)O2` [compound 211, 4-[[4-Chloro-2-[3-[(2,2-difluoro-1,3-benzodioxol-5-yl)-methyl-carbamoyl]phenyl]-5-(trifluoromethyl)pyrazol-3-yl]oxymethyl]benzoic acid]: greater than 6.00; for `Cc1nc2cc(F)c(N(C)C(=O)c3cccc(-n4nc(C(F)(F)F)c(Cl)c4OCc4ccc(C(=O)O)cc4)c3)cc2o1` [compound 212, 4-[[4-Chloro-2-[3-[(5-fluoro-2-methyl-1,3-benzoxazol-6-yl)-methyl-carbamoyl]phenyl]-5-(trifluoromethyl)pyrazol-3-yl]oxymethyl]benzoic acid]: greater than 6.00. The same measure for `CN(C(=O)c1cccc(-n2nc(C(F)(F)F)cc2O[C@H]2CC[C@@H](C(=O)O)CC2)c1)c1ccc2c(c1)OCO2` [compound 216, Cis-4-[2-[3-[1,3-benzodioxol-5-yl(methyl)carbamoyl]phenyl]-5-(trifluoromethyl)pyrazol-3-yl]oxycyclohexane carboxylic acid]: greater than 6.00; for `CN(C(=O)c1cccc(-n2nc(C(F)(F)F)c(Cl)c2CO)c1)c1ccc2c(c1)OC(F)(F)O2` [compound 217, 3-[4-Chloro-5-(hydroxymethyl)-3-(trifluoromethyl)pyrazol-1-yl]-N-(2,2-difluoro-1,3-benzodioxol-5-yl)-N-methyl-benzamide]: greater than 6.00; for `CN(C(=O)c1cccc(-n2nc(C(F)(F)F)cc2COc2ccc(C(=O)O)cc2)c1)c1ccc2c(c1)OC(F)(F)O2` [compound 218, 4-[[2-[3-[(2,2-difluoro-1,3-benzodioxol-5-yl)-methyl-carbamoyl]phenyl]-5-(trifluoromethyl)pyrazol-3-yl]methoxy]benzoic acid]: greater than 6.00.

For the compound `CN(C(=O)c1cccc(-n2nc(C(F)(F)F)c(C#N)c2COc2ccc(C(=O)O)cc2)c1)c1ccc2c(c1)OC(F)(F)O2` [compound 224, 4-[[4-Cyano-2-[3-[(2,2-difluoro-1,3-benzodioxol-5-yl)-methyl-carbamoyl]phenyl]-5-(trifluoromethyl)pyrazol-3-yl]methoxy]benzoic acid], the pEC50 was greater than 6.00.

For `CN(C(=O)c1cccc(-n2nc(C(F)(F)F)c(Cl)c2COc2cnc(C(=O)O)cn2)c1)c1ccc2c(c1)OC(F)(F)O2` [compound 226, 5-[[4-Chloro-2-[3-[(2,2-difluoro-1,3-benzodioxol-5-yl)-methyl-carbamoyl]phenyl]-5-(trifluoromethyl)pyrazol-3-yl]methoxy]pyrazine-2-carboxylic acid], the pEC50 was greater than 6.00.

On to `CN(C(=O)c1cccc(-n2nc(C(F)(F)F)c(Cl)c2CO[C@H]2CC[C@H](C(=O)O)CC2)c1)c1ccc2c(c1)OC(F)(F)O2` [compound 228, Trans-4-[[4-chloro-2-[3-[(2,2-difluoro-1,3-benzodioxol-5-yl)-methyl-carbamoyl]phenyl]-5-(trifluoromethyl)pyrazol-3-yl]methoxy]cyclohexanecarboxylic acid], for which the pEC50 is greater than 6.00. In the case of `Cc1nc2ccc(N(C)C(=O)c3cccc(-n4nc(C(F)(F)F)c(Cl)c4COc4ccc(C(=O)O)cc4)c3)cc2o1` [compound 233, 4-[[4-Chloro-2-[3-[methyl-(2-methyl-1,3-benzoxazol-6-yl)carbamoyl]phenyl]-5-(trifluoromethyl)pyrazol-3-yl]methoxy]benzoic acid] it was greater than 6.00. Take `Cc1nc2cc(F)c(N(C)C(=O)c3cccc(-n4nc(C(F)(F)F)c(Cl)c4COc4ccc(C(=O)O)cc4)c3)cc2o1` [compound 234, 4-[[4-Chloro-2-[3-[(5-fluoro-2-methyl-1,3-benzoxazol-6-yl)-methyl-carbamoyl]phenyl]-5-(trifluoromethyl)pyrazol-3-yl]methoxy]benzoic acid]: the pEC50 was greater than 6.00. The same measure for `Cc1nc2ccc(N(C)C(=O)c3cccc(-n4nc(C(F)(F)F)c(Cl)c4COc4ccc(C(=O)O)cc4)c3)cn2n1` [compound 236, 4-[[4-Chloro-2-[3-[methyl-(2-methyl-[1,2,4]triazolo[1,5-a]pyridin-6-yl)carbamoyl]phenyl]-5-(trifluoromethyl)pyrazol-3-yl]methoxy]benzoic acid]: greater than 6.00.

Regarding `Cc1cc2ncc(N(C)C(=O)c3cccc(-n4nc(C(F)(F)F)c(Cl)c4COc4ccc(C(=O)O)cc4)c3)cn2n1` [compound 238, 4-[[4-Chloro-2-[3-[methyl-(2-methylpyrazolo[1,5-a]pyrimidin-6-yl)carbamoyl]phenyl]-5-(trifluoromethyl)pyrazol-3-yl]methoxy]benzoic acid], the pEC50 is 5.70 to 6.00. The same measure for `Cc1cc2cc(N(C)C(=O)c3cccc(-n4nc(C(F)(F)F)c(Cl)c4COc4ccc(C(=O)O)cc4)c3)ccn2n1` [compound 239, 4-[[4-Chloro-2-[3-[methyl-(2-methylpyrazolo[1,5-a]pyridin-5-yl)carbamoyl]phenyl]-5-(trifluoromethyl)pyrazol-3-yl]methoxy]benzoic acid]: greater than 6.00; for `Cc1noc2cc(N(C)C(=O)c3cccc(-n4nc(C(F)(F)F)c(Cl)c4COc4ccc(C(=O)O)cc4)c3)ccc12` [compound 245, 4-[[4-Chloro-2-[3-[methyl-(3-methyl-1,2-benzoxazol-6-yl)carbamoyl]phenyl]-5-(trifluoromethyl)pyrazol-3-yl]methoxy]benzoic acid]: greater than 6.00; for `COC(=O)C12CC(COc3cc(C(F)(F)F)nn3-c3cccc(C(=O)N(C)c4ccc5c(c4)OC(F)(F)O5)c3)(C1)C2` [compound 254, Methyl 3-[[2-[3-[(2,2-difluoro-1,3-benzodioxol-5-yl)-methyl-carbamoyl]phenyl]-5-(trifluoromethyl)pyrazol-3-yl]oxymethyl]bicyclo[1.1.1]pentane-1-carboxylate]: greater than 6.00. On to `CN(C(=O)c1cccc(-n2nc(C(F)(F)F)cc2OCC23CC(C(=O)O)(C2)C3)c1)c1ccc2c(c1)OC(F)(F)O2` [compound 255, 3-[[2-[3-[(2,2-Difluoro-1,3-benzodioxol-5-yl)-methyl-carbamoyl]phenyl]-5-(trifluoromethyl)pyrazol-3-yl]oxymethyl]bicyclo[1.1.1]pentane-1-carboxylic acid], for which the pEC50 is greater than 6.00.

As for `Cc1cn2cc(N(C)C(=O)c3cccc(-n4nc(C(F)(F)F)c(Cl)c4COc4ccc(C(=O)O)cc4)c3)ccc2n1` [compound 256, 4-[[4-Chloro-2-[3-[methyl-(2-methylimidazo[1,2-a]pyridin-6-yl)carbamoyl]phenyl]-5-(trifluoromethyl)pyrazol-3-yl]methoxy]benzoic acid], the pEC50 is greater than 6.00.

For `CN(C(=O)c1cccc(-n2nc(C(F)(F)F)c(Cl)c2COC2CC(C(=O)O)C2)c1)c1ccc2c(c1)OC(F)(F)O2` (centres unmarked) [compound 257, 3-[[4-Chloro-2-[3-[(2,2-difluoro-1,3-benzodioxol-5-yl)-methyl-carbamoyl]phenyl]-5-(trifluoromethyl)pyrazol-3-yl]methoxy]cyclobutanecarboxylic acid], the pEC50 was greater than 6.00. For `CN(C(=O)c1cccc(-n2nc(C(F)(F)F)c(Cl)c2OCC23CC(C(=O)O)(C2)C3)c1)c1ccc2c(c1)OC(F)(F)O2` [compound 258, 3-[[4-Chloro-2-[3-[(2,2-difluoro-1,3-benzodioxol-5-yl)-methyl-carbamoyl]phenyl]-5-(trifluoromethyl)pyrazol-3-yl]oxymethyl]bicyclo[1.1.1]pentane-1-carboxylic acid], the pEC50 was greater than 6.00. The same measure for `CN(C(=O)c1cccc(-n2nc(C(F)(F)F)c(C#N)c2COc2ccc(C(=O)OC(C)(C)C)cc2)c1)c1ccc2c(c1)OC(F)(F)O2` [compound 259, Tert-butyl 4-[[4-cyano-2-[3-[(2,2-difluoro-1,3-benzodioxol-5-yl)-methyl-carbamoyl]phenyl]-5-(trifluoromethyl)pyrazol-3-yl]methoxy]benzoate]: greater than 6.00.
